Results: ChEMBL document CHEMBL1131299 (J Med Chem, 1998)

Tests used:
Progesterone receptor [1] = target: T1, Progesterone receptor (Homo sapiens, UniProt P06401); assay: The binding affinity measured using baculovirus-expressed hPR-A in sf21 cells.
T1 sequence (P06401 whole entry): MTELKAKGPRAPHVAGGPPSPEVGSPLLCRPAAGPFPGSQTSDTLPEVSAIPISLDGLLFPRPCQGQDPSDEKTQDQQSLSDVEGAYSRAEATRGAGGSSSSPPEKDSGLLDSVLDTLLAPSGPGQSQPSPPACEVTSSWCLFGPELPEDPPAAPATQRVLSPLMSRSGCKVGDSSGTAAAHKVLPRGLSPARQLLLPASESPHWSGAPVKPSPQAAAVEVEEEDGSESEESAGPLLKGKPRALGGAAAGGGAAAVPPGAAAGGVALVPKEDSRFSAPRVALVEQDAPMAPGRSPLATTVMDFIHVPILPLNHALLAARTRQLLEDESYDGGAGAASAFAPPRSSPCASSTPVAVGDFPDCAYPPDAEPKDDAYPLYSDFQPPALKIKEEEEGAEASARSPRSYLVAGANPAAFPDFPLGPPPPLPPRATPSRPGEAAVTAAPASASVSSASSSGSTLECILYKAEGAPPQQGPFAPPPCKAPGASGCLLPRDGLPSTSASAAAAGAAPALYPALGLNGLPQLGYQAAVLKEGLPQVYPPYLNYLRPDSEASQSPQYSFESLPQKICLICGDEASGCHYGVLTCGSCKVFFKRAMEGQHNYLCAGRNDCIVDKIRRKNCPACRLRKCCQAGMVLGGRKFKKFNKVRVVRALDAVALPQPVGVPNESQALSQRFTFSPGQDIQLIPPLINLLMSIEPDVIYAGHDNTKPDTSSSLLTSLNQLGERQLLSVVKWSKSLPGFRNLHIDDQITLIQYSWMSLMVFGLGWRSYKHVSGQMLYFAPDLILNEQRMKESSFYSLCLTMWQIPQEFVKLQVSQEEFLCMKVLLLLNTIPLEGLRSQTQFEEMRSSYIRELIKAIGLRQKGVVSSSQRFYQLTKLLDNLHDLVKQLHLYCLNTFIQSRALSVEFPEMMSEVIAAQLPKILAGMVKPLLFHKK

Progesterone receptor [2] = target: T1, Progesterone receptor; assay: Agonistic activity was measured for modulation of hPR-B (human progesterone receptor) in co-transfected CV-1 cells.; format: functional, cell-based
Rattus norvegicus = species: Rattus norvegicus; assay: Compound was Dawley rats expressed as response to MPA at […]; format: functional

For `CC1=CC(C)(C)Nc2ccc3c(c21)C(c1cccc(C)c1)Oc1ccc(Cl)cc1-3` (stereo not drawn), which Ki (Progesterone receptor [1]) is on record?
Its Ki is 0.55 nM.

What about the EC50 (Progesterone receptor [2]) of the same compound?
Its EC50 is 7.1 nM.

For `COc1ccc(C2Oc3ccc(Cl)cc3-c3ccc4c(c32)C(C)=CC(C)(C)N4)cc1` (stereo not drawn), which Ki (Progesterone receptor [1]) is on record?
Its Ki is 0.93 nM.

And the EC50 (Progesterone receptor [2])?
The EC50 was 13 nM.

What does the source list for `CC1=CC(C)(C)Nc2ccc3c(c21)C(c1ccc(F)c(C)c1)Oc1ccc(Cl)cc1-3` (stereo not drawn)?
Ki (Progesterone receptor [1]): 1.3 nM; EC50 (Progesterone receptor [2]): 9.5 nM

Which Ki (Progesterone receptor [1]) does the source give for `CC1=CC(C)(C)Nc2ccc3c(c21)C(c1ccc(Cl)cc1)Oc1cc(F)ccc1-3` (stereo not drawn) here?
The Ki was 2.7 nM.

What about the EC50 (Progesterone receptor [2]) of the same compound?
Its EC50 is 10 nM.

`CC(=O)O[C@]1(C(C)=O)CC[C@H]2[C@@H]3C[C@H](C)C4=CC(=O)CC[C@]4(C)[C@H]3CC[C@@]21C` [MEDROXYPROGESTERONE ACETATE] was tested. Which Efficacy (Rattus norvegicus) did it give?
The Efficacy was 100%.

What does the source list for `CC1=CC(C)(C)Nc2ccc3c(c21)C(c1cccc(C)c1)Oc1ccc(F)cc1-3` (stereo not drawn)?
Ki (Progesterone receptor [1]): 0.37 nM; EC50 (Progesterone receptor [2]): 5 nM

Which Ki (Progesterone receptor [1]) does the source give for `CC1=CC(C)(C)Nc2ccc3c(c21)C(c1cccc(C(F)(F)F)c1)Oc1ccc(Cl)cc1-3` (stereo not drawn) here?
Its Ki is 1.1 nM.

Which results are given for `CC1=CC(C)(C)Nc2ccc3c(c21)C(c1cccc(F)c1)Oc1ccc(Cl)cc1-3` (stereo not drawn)?
Ki (Progesterone receptor [1]): 0.34 nM; EC50 (Progesterone receptor [2]): 3.7 nM

Which Ki (Progesterone receptor [1]) does the source give for `COc1ccc2c(c1)-c1ccc3c(c1C(c1ccc(Cl)cc1)O2)C(C)=CC(C)(C)N3` (stereo not drawn) here?
Its Ki is 2.4 nM.

And the EC50 (Progesterone receptor [2])?
The EC50 was 3.1 nM.

How did the EC50 (Progesterone receptor [2]) turn out when `CC1=CC(C)(C)Nc2ccc3c(c21)C(c1ccc(Cl)cc1)Oc1ccccc1-3` (stereo not drawn) was run?
Its EC50 is 15 nM.

How did the Ki (Progesterone receptor [1]) turn out when `CC1=CC(C)(C)Nc2ccc3c(c21)C(c1ccc(Cl)c(C)c1)Oc1ccc(Cl)cc1-3` (stereo not drawn) was run?
The Ki was 0.5 nM.

For `CC1=CC(C)(C)Nc2ccc3c(c21)C(c1cccc(Cl)c1)Oc1ccc(Cl)cc1-3` (stereo not drawn), which Ki (Progesterone receptor [1]) is on record?
Its Ki is 0.48 nM.

And the EC50 (Progesterone receptor [2])?
The EC50 was 3.6 nM.

What does the source list for `CC1=CC(C)(C)Nc2ccc3c(c21)C(c1ccc(Cl)cc1)Oc1ccc(Cl)cc1-3` (stereo not drawn)?
Ki (Progesterone receptor [1]): 0.59 nM; EC50 (Progesterone receptor [2]): 9 nM; Efficacy (Rattus norvegicus): 108%

With `CC1=CC(C)(C)Nc2ccc3c(c21)C(c1ccc(Cl)c(C)c1)Oc1ccc(F)cc1-3` (stereo not drawn) as the compound, how does the Ki (Progesterone receptor [1]) read?
The Ki was 0.49 nM.

And the EC50 (Progesterone receptor [2])?
The EC50 was 2.7 nM.

What does the source list for `CC1=CC(C)(C)Nc2ccc3c(c21)C(c1cccc(Cl)c1)Oc1ccc(F)cc1-3` (stereo not drawn)?
Ki (Progesterone receptor [1]): 0.32 nM; EC50 (Progesterone receptor [2]): 2.8 nM

What does the source list for `CC1=CC(C)(C)Nc2ccc3c(c21)C(c1ccccc1)Oc1ccc(Cl)cc1-3` (stereo not drawn)?
Ki (Progesterone receptor [1]): 0.74 nM; EC50 (Progesterone receptor [2]): 6.9 nM

With `CC1=CC(C)(C)Nc2ccc3c(c21)C(c1ccc(F)c(C)c1)Oc1ccc(F)cc1-3` (stereo not drawn) as the compound, how does the Ki (Progesterone receptor [1]) read?
Its Ki is 1.3 nM.

And the EC50 (Progesterone receptor [2])?
The EC50 was 15 nM.

`CC1=CC(C)(C)Nc2ccc3c(c21)C(c1cccc(C(F)(F)F)c1)Oc1ccc(F)cc1-3` (stereo not drawn) was tested. Which Ki (Progesterone receptor [1]) did it give?
The Ki was 0.78 nM.

What about the EC50 (Progesterone receptor [2]) of the same compound?
Its EC50 is 10 nM.

How did the Ki (Progesterone receptor [1]) turn out when `CC1=CC(C)(C)Nc2ccc3c(c21)C(c1ccc(Br)cc1)Oc1ccc(Cl)cc1-3` (stereo not drawn) was run?
The Ki was 0.59 nM.

And the EC50 (Progesterone receptor [2])?
The EC50 was 5.2 nM.

What about the Efficacy (Rattus norvegicus) of the same compound?
Its Efficacy is 60%.

With `COc1ccc(C2Oc3ccc(F)cc3-c3ccc4c(c32)C(C)=CC(C)(C)N4)cc1` (stereo not drawn) as the compound, how does the Ki (Progesterone receptor [1]) read?
Its Ki is 2.7 nM.

What about the EC50 (Progesterone receptor [2]) of the same compound?
Its EC50 is 270 nM.

Which results are given for `CC1=CC(C)(C)Nc2ccc3c(c21)C(c1ccc(Cl)cc1)Oc1ccc(F)cc1-3` (stereo not drawn)?
Ki (Progesterone receptor [1]): 0.32 nM; EC50 (Progesterone receptor [2]): 8.1 nM; Efficacy (Rattus norvegicus): 116%

With `CC1=CC(C)(C)Nc2ccc3c(c21)C(c1ccccc1)Oc1ccc(F)cc1-3` (stereo not drawn) as the compound, how does the Ki (Progesterone receptor [1]) read?
Its Ki is 2.2 nM.

And the EC50 (Progesterone receptor [2])?
Its EC50 is 7.4 nM.
